Data: article PMC12519464, “Dual-Site Inhibition of SARS-CoV‑2 RNA-Dependent RNA Polymerase by Small Molecules Able to Block Viral Replication Identified through a Computer-Aided Drug Discovery Approach” (ACS Infectious Diseases, 2025)

target: SARS-CoV-2 nsp12/7/8 (RTC) complex (Severe acute respiratory syndrome coronavirus 2, UniProt P0DTD1); test: biochemical; format: biochemical; details: not given

SMILES	IC50 [µM]
CC(C)Oc1ccc(-c2nn([C@@H](C)c3oc4ccc(F)cc4c(=O)c3-c3cccc(F)c3)c3ncnc(N)c23)cc1F [Umbralisib, reference compound]	> 100
CC(C)C1=CC(=O)[C@](C)([C@H]2[C@H](O)C[C@@]3(C)[C@@H]4CC=C5[C@@H](CC[C@@H](O[C@@H]6OC[C@@H](O)[C@H](O)[C@H]6O[C@@H]6O[C@@H](C)[C@H](O)[C@@H](O)[C@H]6O)C5(C)C)[C@]4(C)C(=O)C[C@]23C)O1 (racemic) [Picfeltarracemin Ia]	> 100
CN(C(=O)c1ccc(F)cc1C(F)(F)F)C1CCN(c2nnc(-c3ccnn3C)c3ccccc23)CC1 [Taladegib, reference compound]	> 100
C[C@H]1[C@H](C)CC[C@]2(C(=O)O)CC[C@]3(C)C(=CC[C@@H]4[C@@]5(C)C[C@@H](O)[C@H](O)[C@@](C)(CO)[C@@H]5CC[C@]43C)[C@H]12 [Asiatic Acid]	> 100
C=C(C)[C@@H]1CC[C@]2(C=O)CC[C@]3(C)[C@H](CC[C@@H]4[C@@]5(C)CC[C@H](O)C(C)(C)[C@@H]5CC[C@]43C)[C@@H]12 [Betulinaldehyde]	> 100
CC(C)=CCC[C@](C)(O[C@@H]1O[C@H](CO)[C@@H](O)[C@H](O)[C@H]1O)[C@H]1CC[C@]2(C)[C@@H]1[C@H](O)C[C@@H]1[C@@]3(C)CC[C@H](O)C(C)(C)[C@@H]3[C@@H](O)C[C@]12C [Ginsenoside F1]	> 100
CC1(C)CC[C@]2(C(=O)O)CC[C@]3(C)C(=CC[C@@H]4[C@@]5(C)C[C@@H](O)[C@H](O)C(C)(C)[C@@H]5CC[C@]43C)[C@@H]2C1 [Maslinic Acid]	> 100
CC1(C)[C@@H](OC(=O)CCC(=O)O)CC[C@]2(C)[C@H]3C(=O)C=C4[C@@H]5C[C@@](C)(C(=O)O)CC[C@]5(C)CC[C@@]4(C)[C@]3(C)CC[C@@H]12 [Carbenoxolone, reference compound]	55.8 ± 8.66
CC1=C(/C=C/C(C)=C/C=C/C(C)=C/C(=O)Nc2ccc(O)cc2)C(C)(C)CCC1 [Fenretinide, reference compound]	> 100
CC1(C)CC[C@]2(C(=O)O)[C@H](O)C[C@]3(C)C(=CC[C@@H]4[C@@]5(C)CC[C@H](O)[C@@](C)(C=O)[C@@H]5CC[C@]43C)[C@@H]2C1 [Quillaic acid]	83.9 ± 9.31
C[C@H]1[C@H](C)CC[C@]2(C(=O)O)CC[C@]3(C)C(=CC[C@@H]4[C@@]5(C)CC[C@H](O)C(C)(C)[C@@H]5CC[C@]43C)[C@H]12 [Ursolic acid, reference compound]	> 100
C[C@H]1[C@H](C)CC[C@]2(C(=O)O)CC[C@]3(C)C(=CC[C@@H]4[C@@]5(C)C[C@@H](O)[C@H](O)C(C)(C)[C@@H]5CC[C@]43C)[C@H]12 [Corosolic acid, reference compound]	> 100

same assay, conditions: primer-extension PAGE assay, 150 nM RTC, 5% DMSO, 30 min preincubation at 37 °C; mean and SD of at least 3 independent experiments

SMILES	IC50 [µM]
CC[C@H](CC[C@@H](C)[C@H]1CC[C@H]2[C@@H]3CC=C4C[C@@H](O[C@@H]5O[C@H](CO)[C@@H](O)[C@H](O)[C@H]5O)CC[C@]4(C)[C@H]3CC[C@]12C)C(C)C [Daucosterol, reference compound]	> 100
Cc1cnc(C(=O)N[C@H]2CCCCC/C=C\[C@@H]3C[C@@]3(C(=O)NS(=O)(=O)C3CC3)NC(=O)[C@@H]3C[C@@H](Oc4nc5ccccc5c5ccccc45)CN3C2=O)cn1 [Paritaprevir, reference compound]	42.2 ± 9.97
CC(C)CC(=O)Nc1cncc(-c2ccc3[nH]nc(-c4nc5c(-c6cccc(F)c6)cncc5[nH]4)c3c2)c1 [Adavivint, reference compound]	> 100
Cc1ccc(F)cc1C(=O)Nc1ccc(C(=O)N2Cc3cccn3Cc3ccccc32)c(Cl)c1 [Lixivaptan, reference compound]	> 100
CC1(C)CC[C@]2(NC(=O)C(C)(F)F)CC[C@]3(C)[C@H](C(=O)C=C4[C@@]5(C)C=C(C#N)C(=O)C(C)(C)[C@@H]5CC[C@]43C)[C@@H]2C1 [Omaveloxolone, reference compound]	13 ± 4.28
C[C@H](NC(=O)c1c(N)nn2cccnc12)c1cc2cccc(C#Cc3cnn(C)c3)c2c(=O)n1-c1ccccc1 [Eganelisib, reference compound]	> 100

same assay, conditions: read-out: IC50: compound concentration required to inhibit by 50% the SARS-CoV-2 RTC enzymatic activity

SMILES	IC50 [µM]
CC(C)[C@@H](NC(=O)C1(c2ccccc2)CCN(C(=O)OC(C)(C)C)CC1)C(=O)N[C@@H](C(=O)O)c1ccccc1 [(2R)-[(N-{[1-(tert-butoxycarbonyl)-4-phenylpiperidin-4-yl]carbonyl}-D-valyl)amino](phenyl)ethanoic acid]	> 100
O=C(NCC(O)CNC(=O)/C(=C\c1ccco1)NC(=O)c1ccccc1)/C(=C\c1ccco1)NC(=O)c1ccccc1 [N-[(E)-3-[[3-[[(E)-2-benzamido-3-(furan-2-yl)prop-2-enoyl]amino]-2-hydroxypropyl]amino]-1-(furan-2-yl)-3-oxoprop-1-en-2-yl]benzamide]	90.1 ± 14
CC1=C2C[C@H]3[C@@H](CC(=O)[C@H]4C[C@@H](O)CC[C@@]43C)[C@@H]2CC[C@]12O[C@@H]1C[C@H](C)CN[C@H]1[C@H]2C [Peimisine]	> 100
Cc1oc2c(C)c3oc(=O)c(CC(=O)N4C[C@H]5C[C@@H](C4)c4cccc(=O)n4C5)c(C)c3cc2c1-c1ccccc1 [(1S,9R)-11-[2-(2,5,9-trimethyl-7-oxo-3-phenylfuro[3,2-g]chromen-6-yl)acetyl]-7,11-diazatricyclo[7.3.1.02,7]trideca-2,4-dien-6-one]	28.3 ± 6.24
O=C(Nc1cccc(C(=O)O)c1)/C(=C\c1ccccc1)NC(=O)c1ccc(NC(=O)c2ccccc2)cc1 [3-[[(E)-2-[(4-benzamidobenzoyl)amino]-3-phenylprop-2-enoyl]amino]benzoic acid]	85.7 ± 0.62
CC(C)=CCC[C@@](C)(O)[C@H]1CC[C@]2(C)[C@@H]1[C@H](O)C[C@@H]1[C@@]3(C)CC[C@H](O)C(C)(C)[C@@H]3[C@@H](O[C@@H]3O[C@H](CO)[C@@H](O)[C@H](O)[C@H]3O)C[C@]12C [(20R)-Ginsenoside Rh1]	> 100
C[C@H]1O[C@@H](O[C@H]2CC[C@@]3(C)[C@@H](CC[C@]4(C)[C@@H]3C=CC3=C5CC(C)(C)CC[C@]5(CO)[C@H](O)C[C@]34C)[C@]2(C)CO)[C@H](O)[C@@H](O[C@@H]2O[C@H](CO)[C@@H](O)[C@H](O)[C@H]2O)[C@H]1O [Saikosaponin B2]	54.6 ± 13.6
O=C(COc1ccc2c(-c3ccccc3)cc(=O)oc2c1)Nc1ccc(OCc2ccccc2)cc1 [2-(2-oxo-4-phenylchromen-7-yl)oxy-N-(4-phenylmethoxyphenyl)acetamide]	80.5 ± 6.24
CC1(C)CC[C@]2(C(=O)O)CC[C@]3(C)C(=CC[C@@H]4[C@@]5(C)CC[C@H](O[C@@H]6O[C@H](C(=O)O)[C@@H](O[C@@H]7O[C@@H](CO)[C@H](O)[C@H]7O)[C@H](O)[C@H]6O)C(C)(C)[C@@H]5CC[C@]43C)[C@@H]2C1 [Narcissiflorine]	17.2 ± 5.96
CC1(C)CC[C@]2(C(=O)O)CCC3=C([C@@H](CCl)C[C@@H]4[C@@]5(C)C[C@H](O)[C@H](O)[C@@](C)(C(=O)O)[C@@H]5CC[C@@]34C)[C@@H]2C1 [Senegenin]	> 100
CC(C)=CCC[C@](C)(O)[C@H]1CC[C@]2(C)[C@@H]1[C@H](O)C[C@@H]1[C@@]3(C)CC[C@H](O)C(C)(C)[C@@H]3CC[C@]12C [(20S)-Protopanaxadiol]	> 100
Cc1ccccc1NC(=O)Nc1ccc(CN2C(=O)N([C@@H](CC(C)C)C(=O)N[C@@H](CC(=O)O)c3ccccc3)C(=O)C2(C)C)cc1 [HMR1031, reference compound]	91.2 ± 4.88
CC(C)=CCc1c(-c2ccc(O)cc2O)oc2c([C@H]3C=C(C)C[C@@H](c4ccc(O)cc4O)[C@@H]3C(=O)c3ccc(O)cc3O)c(O)cc(O)c2c1=O [Kuwanon G]	41 ± 6.18
C[C@@H]1CC[C@@]2(OC1)O[C@H]1C[C@H]3[C@@H]4CC=C5C[C@@H](O[C@@H]6O[C@H](CO)[C@@H](O)[C@H](O)[C@H]6O[C@@H]6O[C@@H](C)[C@H](O)[C@@H](O)[C@H]6O)CC[C@]5(C)[C@H]4CC[C@]3(C)[C@@]1(O)[C@@H]2C [(2S,3R,4R,5R,6S)-2-[(2R,3R,4S,5S,6R)-4,5-dihydroxy-6-(hydroxymethyl)-2-[(1R,2S,4S,5'R,6R,7S,8S,9S,12S,13R,16S)-8-hydroxy-5',7,9,13-tetramethylspiro[5-oxapentacyclo[10.8.0.02,9.04,8.013,18]icos-18-ene-6,2'-oxane]-16-yl]oxyoxan-3-yl]oxy-6-methyloxane-3,4,5-triol]	> 100
CC1(C)CC[C@]2(C)CC[C@]3(C)C(=CC[C@@H]4[C@@]5(C)CC[C@@H](O)[C@](C)(C(=O)O)[C@@H]5CC[C@]43C)[C@@H]2C1 [Alpha-Boswellic acid]	93.5 ± 9.14
CC(C)(O)[C@@H]1CC[C@](C)([C@H]2[C@@H](O)C[C@@]3(C)[C@@H]4C[C@H](O)[C@H]5C(C)(C)[C@@H](O)CC[C@@]56C[C@@]46CC[C@]23C)O1 [Cycloastragenol]	> 100
O=C(O[C@@H]1Cc2c(O)cc(O)cc2O[C@@H]1c1cc(=O)c(O)c2c(O)c(O)cc([C@H]3Oc4cc(O)cc(O)c4C[C@H]3O)c2c1)c1cc(O)c(O)c(O)c1 [Theaflavin 3-gallate]	19.8 ± 3.49
O=C(c1ccccc1Cl)c1cccnc1-c1nnn(Cc2cc(C(F)(F)F)cc(C(F)(F)F)c2)c1-c1ccncc1 [Tradipitant, reference compound]	> 100
C[C@@H]1CC[C@]2(C(=O)O)CC[C@]3(C)C(=CC[C@@H]4[C@@]5(C)C[C@@H](O)[C@H](O)C(C)(C)[C@@H]5CC[C@]43C)[C@@H]2[C@]1(C)O [Tormentic acid]	> 100
C[C@@H]1CC[C@@]2(OC1)O[C@H]1C[C@H]3[C@@H]4CC=C5C[C@@H](O[C@@H]6O[C@H](CO)[C@@H](O)[C@H](O)[C@H]6O[C@@H]6O[C@@H](C)[C@H](O)[C@@H](O)[C@H]6O)CC[C@]5(C)[C@H]4CC[C@]3(C)[C@H]1[C@@H]2C [Prosapogenin A]	> 100
C[C@H](CC[C@@H](O[C@@H]1O[C@H](CO)[C@@H](O)[C@H](O)[C@H]1O)C(C)(C)O)[C@H]1CC[C@@]2(C)[C@@H]3CC=C4[C@@H](CC[C@H](O[C@@H]5O[C@H](CO)[C@@H](O)[C@H](O)[C@H]5O)C4(C)C)[C@]3(C)[C@H](O)C[C@]12C [Mogroside IIe]	> 100
CC(C)=CCCC(C(=O)O)C1CCC2(C)C3=C(CCC12C)C1(C)CCC(=O)C(C)(C)C1CC3 (stereo not shown) [3-Dehydrotrametenolic acid]	> 100
